In ChEMBL document CHEMBL4014354, “2'-Chloro,2'-fluoro Ribonucleotide Prodrugs with Potent Pan-genotypic Activity against Hepatitis C Virus Replication in Culture” (J Med Chem, 2017):

What was measured:
nuclear DNA levels [1] = experiment: in vitro; settings: human, HepG2 cells
nuclear DNA levels [2] = experiment: Cytotoxicity against human HepG2 cells assessed as inhibition of nuclear DNA levels at 50 uM measured on day 14 by RT-PCR method relative to nuclear beta-actin DNA levels; format: cell-based; settings: read-out: INH
Hepatitis C virus [3] = experiment: Antiviral activity against HCV genotype 4 infected in human HuH7 cells assessed as inhibition of viral RNA replication after 96 hrs by RT-PCR method; format: functional, cell-based, Hepacivirus hominis; settings: genotype 4, Huh-7, 96 h
Hepatitis C virus [4] = experiment: Antiviral activity against HCV genotype 1b infected in human HuH7 cells assessed as inhibition of viral RNA replication after 96 hrs by RT-PCR method; format: functional, cell-based, Hepacivirus hominis; settings: Huh-7, 96 h
HepG2 [5] = experiment: Cytotoxicity against human HepG2 cells assessed as inhibition of nuclear DNA levels measured on day 14 by RT-PCR method; settings: HepG2, 336 h
[6] = test system: cytochrome c oxidase subunit 2 DNA (mitochondrial DNA) levels; experiment: in vitro; settings: human, HepG2 cells
[7] = test system: cytochrome c oxidase subunit 2 DNA (mitochondrial DNA) levels; experiment: Mitochondrial toxicity in human HepG2 cells assessed as inhibition of cytochrome c oxidase subunit 2 DNA levels measured on day 14 by RT-PCR method; format: cell-based
Hepatitis C virus [8] = experiment: Antiviral activity against HCV genotype 1b harboring wild type NS5B infected in human HuH7 cells assessed as inhibition of viral RNA replication after 5 days by RT-PCR method; format: functional, cell-based, Hepacivirus hominis; settings: Huh-7, 120 h
HepG2 [9] = experiment: Mitochondrial toxicity in human HepG2 cells assessed as cytochrome c oxidase subunit 2 DNA levels at 50 uM measured on day 14 by RT-PCR method relative to nuclear beta-actin DNA levels; format: cell-based; settings: hepg2, 50 µM
Hepatitis C virus [10] = experiment: Antiviral activity against HCV genotype 3a infected in human HuH7 cells assessed as inhibition of viral RNA replication after 96 hrs by RT-PCR method; format: functional, cell-based, Hepacivirus hominis; settings: Huh-7, 96 h
Hepatitis C virus [11] = experiment: Antiviral activity against HCV genotype 2a/k infected in human HuH7 cells assessed as inhibition of viral RNA replication after 96 hrs by RT-PCR method; format: functional, cell-based, Hepacivirus hominis; settings: Huh-7, 96 h
[12] = Cytotoxicity against African green monkey Vero cells assessed as inhibition of cell proliferation after 3 days by MTT assay; format: cell-based; settings: chlorocebus sabaeus
Hepatitis C virus [13] = experiment: Antiviral activity against HCV genotype 1a infected in human HuH7 cells assessed as inhibition of viral RNA replication after 96 hrs by RT-PCR method; format: functional, cell-based, Hepacivirus hominis; settings: subtype 1a, Huh-7, 96 h
HepG2 [14] = experiment: Mitochondrial toxicity in human HepG2 cells assessed as lactic acid production at 10 uM measured on day 14 by spectrophotometric method relative to control; format: cell-based; settings: hepg2, 10 µM
[15] = test system: cytochrome c oxidase subunit 2 DNA (mitochondrial DNA) levels; experiment: Mitochondrial toxicity in human HepG2 cells assessed as inhibition of cytochrome c oxidase subunit 2 DNA levels at 50 uM measured on day 14 by RT-PCR method relative to nuclear beta-actin DNA levels; format: cell-based
[16] = Cytotoxicity against human CEM cells assessed as inhibition of cell proliferation after 4 days by MTT assay; format: cell-based, CCRF-CEM
[17] = Cytotoxicity against human PBMC assessed as inhibition of cell proliferation after 5 days by MTT assay; format: cell-based
HepG2 [18] = experiment: Mitochondrial toxicity in human HepG2 cells assessed as lactic acid production at 50 uM measured on day 14 by spectrophotometric method relative to control; format: cell-based; settings: hepg2, 50 µM
HepG2 [19] = experiment: Mitochondrial toxicity in human HepG2 cells assessed as cytochrome c oxidase subunit 2 DNA levels at 10 uM measured on day 14 by RT-PCR method relative to nuclear beta-actin DNA levels; settings: hepg2, 10 µM
[20] = Cytotoxicity against human HuH7 cells assessed as inhibition of cell proliferation after 4 days by MTS assay; format: cell-based, Huh-7
Hepatitis C virus [21] = experiment: Antiviral activity against HCV genotype 2b infected in human HuH7 cells assessed as inhibition of viral RNA replication after 96 hrs by RT-PCR method; format: functional, cell-based, Hepacivirus hominis; settings: Huh-7, 96 h
DNA polymerase beta = DNA polymerase beta (Homo sapiens, UniProt P06746); experiment: Inhibition of human DNA polymerase beta using 5' end radiolabeled 24nt DNA/48nt DNA as primer/template after 5 mins by PAGE analysis
[22] = Inhibition of human DNA polymerase gamma using 5' end radiolabeled 24nt DNA/36nt DNA as primer/template after 120 mins by PAGE analysis
in vitro [23] = settings: human, liver microsomes
Description: Half life in human liver microsomes at 1 uM by LC-MS/MS analysis

in vitro [24] = settings: human, liver microsomes; remark: listed apart in the source
Description: Metabolic stability in human liver microsomes assessed as parent compound remaining at 1 uM at 60 mins by LC-MS/MS analysis

in vitro [25] = settings: human, liver microsomes; remark: listed apart in the source
Description: Clearance in human liver microsomes at 1 uM by LC-MS/MS analysis

[26] = Metabolic stability in human blood assessed as compound remaining at 2 uM after 2 hrs by LC-MS/MS method; format: ADME, tissue-based; settings: read-out: Stability
[27] = molecular target: T1, DNA polymerase alpha catalytic subunit (Homo sapiens, UniProt P09884); experiment: Inhibition of human DNA polymerase alpha using 5' end radiolabeled 24nt DNA/48nt DNA as primer/template after 5 mins by PAGE analysis
T1 sequence (P09884 whole entry): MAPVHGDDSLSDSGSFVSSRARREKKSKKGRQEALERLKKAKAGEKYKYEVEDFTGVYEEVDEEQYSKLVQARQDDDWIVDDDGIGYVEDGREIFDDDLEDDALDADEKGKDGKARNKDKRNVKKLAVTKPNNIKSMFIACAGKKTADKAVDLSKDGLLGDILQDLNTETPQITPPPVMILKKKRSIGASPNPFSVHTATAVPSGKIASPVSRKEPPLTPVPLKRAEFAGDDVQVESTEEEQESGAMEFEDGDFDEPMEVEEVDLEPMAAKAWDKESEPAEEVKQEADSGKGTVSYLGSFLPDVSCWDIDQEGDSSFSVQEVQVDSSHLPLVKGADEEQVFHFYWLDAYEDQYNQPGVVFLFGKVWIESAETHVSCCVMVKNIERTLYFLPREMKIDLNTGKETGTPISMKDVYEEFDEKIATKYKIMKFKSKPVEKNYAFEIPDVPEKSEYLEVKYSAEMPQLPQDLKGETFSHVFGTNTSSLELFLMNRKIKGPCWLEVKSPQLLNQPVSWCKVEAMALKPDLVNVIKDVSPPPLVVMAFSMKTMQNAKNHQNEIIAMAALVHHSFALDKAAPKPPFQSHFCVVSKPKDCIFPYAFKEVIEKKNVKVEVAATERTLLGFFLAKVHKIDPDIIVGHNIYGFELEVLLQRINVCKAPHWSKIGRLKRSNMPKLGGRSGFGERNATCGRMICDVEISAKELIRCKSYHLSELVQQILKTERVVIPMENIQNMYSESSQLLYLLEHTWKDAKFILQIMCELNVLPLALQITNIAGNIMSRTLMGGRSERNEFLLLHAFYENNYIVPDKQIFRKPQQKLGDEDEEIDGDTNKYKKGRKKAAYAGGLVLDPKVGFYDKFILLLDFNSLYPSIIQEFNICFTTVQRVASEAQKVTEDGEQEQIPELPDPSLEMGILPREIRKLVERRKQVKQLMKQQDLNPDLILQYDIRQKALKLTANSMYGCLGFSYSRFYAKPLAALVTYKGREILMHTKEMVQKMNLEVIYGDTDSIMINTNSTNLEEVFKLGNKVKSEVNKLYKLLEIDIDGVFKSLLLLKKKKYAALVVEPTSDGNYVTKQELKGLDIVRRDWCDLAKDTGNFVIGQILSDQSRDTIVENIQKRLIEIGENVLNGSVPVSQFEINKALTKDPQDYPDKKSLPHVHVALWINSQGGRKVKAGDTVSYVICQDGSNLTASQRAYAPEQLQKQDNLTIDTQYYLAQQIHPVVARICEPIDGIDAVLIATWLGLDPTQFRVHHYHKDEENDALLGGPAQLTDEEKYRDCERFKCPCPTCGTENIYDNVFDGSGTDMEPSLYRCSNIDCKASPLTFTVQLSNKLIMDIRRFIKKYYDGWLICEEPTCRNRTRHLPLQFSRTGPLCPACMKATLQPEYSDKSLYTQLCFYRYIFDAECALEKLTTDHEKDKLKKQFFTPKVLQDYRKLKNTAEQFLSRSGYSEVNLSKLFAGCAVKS

[28] = molecular target: DNA-directed RNA polymerase, mitochondrial (Homo sapiens) (UniProt O00411); experiment: Inhibition of human POLRMT using 5'-P32-RNA/DNA hybrid assessed as incorporation of UTP at 100 uM after 2 hrs by scintillation counting method relative to control; set-up: scale not given: the % may be the effect or the level left
[29] = Inhibition of RNA polymerase 2 isolated from human HeLa cell nuclear extract assessed as decrease in incorporation of P32-alpha-CTP after 2 hrs by scintillation counting method; format: cell-free

DNA-directed RNA polymerase, mitochondrial (Homo sapiens), sequence (O00411 whole entry): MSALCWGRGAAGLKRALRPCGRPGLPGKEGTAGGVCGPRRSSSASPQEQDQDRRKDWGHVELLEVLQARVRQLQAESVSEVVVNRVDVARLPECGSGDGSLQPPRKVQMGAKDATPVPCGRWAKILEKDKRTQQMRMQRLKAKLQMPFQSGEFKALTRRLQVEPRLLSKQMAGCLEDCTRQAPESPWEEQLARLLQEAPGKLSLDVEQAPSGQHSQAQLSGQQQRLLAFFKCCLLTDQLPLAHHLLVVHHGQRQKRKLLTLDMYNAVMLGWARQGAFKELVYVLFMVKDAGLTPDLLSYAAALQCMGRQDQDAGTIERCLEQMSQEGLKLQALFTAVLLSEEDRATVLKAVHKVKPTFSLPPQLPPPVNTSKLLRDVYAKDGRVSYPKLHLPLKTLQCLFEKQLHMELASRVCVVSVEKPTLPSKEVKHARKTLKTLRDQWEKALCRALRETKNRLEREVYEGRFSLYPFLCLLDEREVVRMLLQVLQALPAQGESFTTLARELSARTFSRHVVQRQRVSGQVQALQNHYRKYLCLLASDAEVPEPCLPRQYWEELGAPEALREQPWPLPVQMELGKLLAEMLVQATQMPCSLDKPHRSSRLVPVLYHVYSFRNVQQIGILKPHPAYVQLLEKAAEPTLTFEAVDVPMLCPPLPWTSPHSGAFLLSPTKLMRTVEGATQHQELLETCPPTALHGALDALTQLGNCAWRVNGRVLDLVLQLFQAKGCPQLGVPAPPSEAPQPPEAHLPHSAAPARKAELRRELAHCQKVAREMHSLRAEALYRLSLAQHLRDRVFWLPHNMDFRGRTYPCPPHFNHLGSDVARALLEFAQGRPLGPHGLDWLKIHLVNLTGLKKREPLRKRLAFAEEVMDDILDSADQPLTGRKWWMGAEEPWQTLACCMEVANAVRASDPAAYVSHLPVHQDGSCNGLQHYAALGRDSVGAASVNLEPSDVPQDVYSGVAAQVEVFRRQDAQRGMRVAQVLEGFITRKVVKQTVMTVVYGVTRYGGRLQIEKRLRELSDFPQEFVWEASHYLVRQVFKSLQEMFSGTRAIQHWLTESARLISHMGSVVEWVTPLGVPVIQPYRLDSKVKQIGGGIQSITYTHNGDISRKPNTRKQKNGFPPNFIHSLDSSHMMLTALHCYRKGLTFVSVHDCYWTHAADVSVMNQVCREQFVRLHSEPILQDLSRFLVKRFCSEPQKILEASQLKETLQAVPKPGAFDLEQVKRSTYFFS

O=c1ccn([C@@H]2O[C@H](CO)[C@@H](O)[C@]2(F)Cl)c(=O)[nH]1
cytotoxicity at 14 days, 10 µM (nuclear DNA levels [1]): 8.8%
cytotoxicity at 14 days, 50 µM (nuclear DNA levels [2]): < 1%
IC50 (Hepatitis C virus [3]): > 60 µM
IC50 (Hepatitis C virus [4]): > 60 µM
IC50 (HepG2 [5]): > 50 µM
inhibition at 14 days, 10 µM [6]: < 1%
IC50 at 14 days [7]: > 50 µM
EC50 (Hepatitis C virus [8]): > 100 µM
EC90 (Hepatitis C virus [8]): > 100 µM
Activity (HepG2 [9]): 120%
IC50 (Hepatitis C virus [10]): > 60 µM
IC50 (Hepatitis C virus [11]): > 60 µM
CC50 at 72 h [12]: > 100 µM
IC50 (Hepatitis C virus [13]): > 60 µM
Activity (HepG2 [14]): 85%
inhibition at 14 days, 50 µM [15]: < 1%
CC50 at 96 h [16]: > 100 µM
CC50 at 120 h [17]: > 100 µM
Activity (HepG2 [18]): 120%
Activity (HepG2 [19]): 160%
CC50 at 96 h [20]: > 100 µM
IC50 (Hepatitis C virus [21]): > 60 µM

C[C@@]1(F)[C@H](O)[C@@H](CO)O[C@H]1n1ccc(=O)[nH]c1=O
IC50 (Hepatitis C virus [3]): > 100 µM
IC50 (Hepatitis C virus [4]): > 100 µM
IC50 (Hepatitis C virus [10]): > 100 µM
IC50 (Hepatitis C virus [11]): > 100 µM
IC50 (Hepatitis C virus [13]): > 100 µM
IC50 (Hepatitis C virus [21]): > 100 µM

Cc1cn([C@H]2CC[C@@H](COP(=O)(O)OP(=O)(O)OP(=O)(O)O)O2)c(=O)[nH]c1=O
IC50 (DNA polymerase beta): 19 µM
IC50 [22]: 43 µM

CC(C)OC(=O)[C@H](C)NP(=O)(OC[C@H]1O[C@@H](n2ccc3c(N)ncnc32)C(F)(Cl)C1O)Oc1ccccc1 (single isomer, unassigned)
EC50 (Hepatitis C virus [8]): > 10 µM
EC90 (Hepatitis C virus [8]): > 10 µM
CC50 at 72 h [12]: > 100 µM
CC50 at 96 h [16]: 69 µM
CC50 at 120 h [17]: > 100 µM
CC50 at 96 h [20]: > 10 µM

CC(C)OC(=O)[C@H](C)NP(=O)(OC[C@H]1O[C@@H](n2cc(F)c3c(N)ncnc32)C(F)(Cl)C1O)Oc1ccccc1 (single isomer, unassigned)
EC50 (Hepatitis C virus [8]): > 10 µM
EC90 (Hepatitis C virus [8]): > 10 µM
CC50 at 72 h [12]: 60.9 µM
CC50 at 96 h [16]: 55.3 µM
CC50 at 120 h [17]: 99.7 µM
CC50 at 96 h [20]: > 10 µM

O=C(O)Cc1ccccc1Nc1c(Cl)cccc1Cl [DICLOFENAC]
half-life at 1 µM (in vitro [23]): 8.9 min
remaining at 1 h, 1 µM (in vitro [24]): 1.2%
microsomal CLint at 1 µM (in vitro [25]): 156 µL/min/mg

CC1CC(OC(=O)C(O)c2ccccc2)CC(C)(C)N1C (configuration not stated) [EUCATROPINE]
remaining at 2 h, 2 µM [26]: 19%

C[C@@]1(F)[C@H](O)[C@@H](COP(=O)(O)OP(=O)(O)OP(=O)(O)O)O[C@H]1n1ccc(=O)[nH]c1=O [GS-461203]
IC50 [27]: > 100 µM
Activity [28]: 3.1%
IC50 (DNA polymerase beta): > 100 µM
IC50 [22]: > 100 µM
IC50 [29]: > 100 µM

Nc1ccn([C@@H]2CS[C@H](CO)O2)c(=O)n1 [LAMIVUDINE]
IC50 at 14 days [7]: > 10 µM

C[C@]12CC[C@H]3[C@@H](CCC4=CC(=O)CC[C@@]43C)[C@@H]1CC[C@@H]2O [TESTOSTERONE]
half-life at 1 µM (in vitro [23]): 15 min
remaining at 1 h, 1 µM (in vitro [24]): 6.3%
microsomal CLint at 1 µM (in vitro [25]): 92 µL/min/mg

Nc1ccn([C@H]2CC[C@@H](CO)O2)c(=O)n1 [ZALCITABINE]
cytotoxicity at 14 days, 10 µM (nuclear DNA levels [1]): 53%
IC50 (HepG2 [5]): < 10 µM
inhibition at 14 days, 10 µM [6]: 96%
IC50 at 14 days [7]: < 10 µM
Activity (HepG2 [14]): 330%
Activity (HepG2 [19]): 9.5%

CC[C@H](C)[C@@H]1NC(=O)CNC(=O)[C@@H]2Cc3c([nH]c4cc(O)ccc34)[S+]([O-])C[C@@H](NC(=O)CNC1=O)C(=O)N[C@@H](CC(N)=O)C(=O)N1C[C@H](O)C[C@H]1C(=O)N[C@@H]([C@@H](C)[C@@H](O)CO)C(=O)N2 (stereo partly drawn) [alpha-Amanitin]
IC50 [29]: 0.0025 µM
